The source of these data is patent publication EP4617282A1, “MEMBRANE FUSION INHIBITOR FOR […] VIRUS AND DRUG-RESISTANT STRAIN THEREOF, AND PHARMACEUTICAL USE THEREOF” (Institute Of Pathogen Biology, Chinese Academy Of Medical …, priority 2022, dated 2024).

The test system of one test is HIV-1NL4-3 pseudovirus. The format is cell-based. To be noted: TZM-b1 cells, 100 TCID50, 48 hours. The text has this:
(§1) HIV-1JRFL Env expression vectors and backbone plasmas (pSG3 ΔEnv) and TZM-bl cells were described in the following literature: Xue, J., Chong, H., Zhu, Y, Zhang, J., Tong, L., Lu, J., Chen, T., Cong, Z., Wei, Q., He, Y., 2022. Efficient treatment and pre-exposure prophylaxis in rhesus macaques by an HIV fusion-inhibitory lipopeptide. Cell 185, 131-144 e118. The HIV-1JRFL Env expression vector and the backbone plasmas (pSG3 ΔEnv) were co-transfected into HEK293T cells, and the transfected cells were cultured in a cell culture incubator at 37 °C and 5% CO2 for 48 hours, and then the supernatant was collected and filtered to collect the filtrate. The resulting filtrate was a virus solution containing HIV-1JRFL pseudovirus particles (called as HIV-1JRFL virus solution), which was preserved at -80 °C for later use.
The preparation method of the HIV-1NL4-3 virus solution (i.e., the virus solution containing HIV-1NL4-3 pseudovirus particle) was basically the same as that of the HIV-1JRFL virus liquid, except that the HIV-1JRFL Env expression vector was replaced with HIV-1NL4-3 Env expression vector. […]
Test virus solution: HIV-1NL4-3 virus solution or HIV-1JRFL virus solution. • 1. […] Relative luminescence units (RLU) were measured by a microplate luminometer, an inhibition rate curve was made, and the half-maximal inhibition concentration (IC50) of the drug was calculated. […]

In another test the test system is HIV-1JRFL pseudovirus. Format: cell-based. To be noted: TZM-b1 cells, 100 TCID50, 48 hours.
Text: as §1
Test virus solution: HIV-1NL4-3 virus solution or HIV-1JRFL virus solution. • 1. A test lipopeptide was dissolved in deionized water and then diluted with DMEM medium (using 3-fold dilution) to obtain a lipopeptide diluent. 9 dilutions were set for each test lipopeptide. • 2. In a 96-well plate, the lipopeptide diluent (50 µL/well) was added to drug wells and the DMEM medium (50 µL/well) was added to control wells. Each well was set with three duplicate wells. • 3. After step 2 was finished, a test virus solution (50 µL/well, a virus content of 100 TCID50) was added to the 96-well plate and incubated at room temperature for 30 minutes. • 4. After step 3 was finished, a TZM-b1 cell suspension (100 µL/well) was added to the 96-well plate and cultured for 48 hours in a cell culture incubator at 37 °C and 5% CO2. Preparation method of the TZM-b1 cell suspension: TZM-b1 cells were re-suspended in a DMEM medium and DEAE-dextran was added thereto such that the cell concentration was 10×10^4 cells/mL and the DEAE-dextran concentration was 15 µg/mL. • 5. […] Relative luminescence units (RLU) were measured by a microplate luminometer, an inhibition rate curve was made, and the half-maximal inhibition concentration (IC50) of the drug was calculated. […]

What is called IC50 is the concentration that inhibits the measured activity by half.

Residues, ends and D or L forms follow the SMILES beside them. *: point of attachment. Succinyl(4-O-cholesteryl) = CC(C)CCC[C@@H](C)[C@H]1CC[C@H]2[C@@H]3CC=C4C[C@@H](OC(=O)CCC(=O)*)CC[C@]4(C)[C@H]3CC[C@]12C

As to `CC[C@H](C)[C@H](NC(=O)[C@H](CCCCN)NC(=O)[C@H](CCC(N)=O)NC(=O)[C@H](CCC(=O)O)NC(=O)[C@H](Cc1ccc(O)cc1)NC(C)=O)C(=O)N[C@@H](CCC(=O)O)C(=O)N[C@@H](CCC(=O)O)C(=O)N[C@@H](CC(C)C)C(=O)N[C@@H](CC(C)C)C(=O)N[C@@H](CCCCN)C(=O)N[C@@H](CCCCN)C(=O)N[C@@H](C)C(=O)N[C@@H](CCC(=O)O)C(=O)N[C@@H](CCC(=O)O)C(=O)N[C@@H](CCC(N)=O)C(=O)N[C@@H](CCC(N)=O)C(=O)N[C@@H](CCCCN)C(=O)N[C@@H](CCCCN)C(=O)N[C@@H](CC(N)=O)C(=O)N[C@@H](CCC(=O)O)C(=O)N[C@@H](CCC(=O)O)C(=O)N[C@@H](CCC(=O)O)C(=O)N[C@@H](CC(C)C)C(=O)N[C@@H](CCCCN)C(=O)N[C@@H](CCCCN)C(=O)N[C@@H](CC(C)C)C(=O)N[C@@H](CCC(=O)O)C(=O)N[C@@H](CCCCNC(=O)CCC(=O)O[C@H]1CC[C@@]2(C)C(=CC[C@H]3[C@@H]4CC[C@H]([C@H](C)CCCC(C)C)[C@@]4(C)CC[C@@H]32)C1)C(N)=O` [LP-98, reference compound] (Ac-YEQKIEELLKKAEEQQKKNEEELKKLEK(Succinyl(4-O-cholesteryl))-NH2), the IC50 is 1.07 pM with HIV-1NL4-3 pseudovirus and 2.58 pM with HIV-1JRFL pseudovirus. Consider `CC[C@H](C)[C@H](NC(=O)[C@H](CCCCN)NC(=O)[C@H](CCCCN)NC(=O)[C@H](CCC(=O)O)NC(=O)[C@H](Cc1c[nH]c2ccccc12)NC(=O)[C@H](CCC(=O)O)NC(=O)[C@H](CCC(=O)O)NC(=O)[C@H](Cc1c[nH]c2ccccc12)NC(C)=O)C(=O)N[C@@H](CCC(=O)O)C(=O)N[C@@H](CCC(=O)O)C(=O)N[C@@H](CC(C)C)C(=O)N[C@@H](CCC(=O)O)C(=O)N[C@@H](CCCCN)C(=O)N[C@@H](CCCCN)C(=O)N[C@H](C(=O)N[C@@H](CCC(=O)O)C(=O)N[C@@H](CCC(=O)O)C(=O)N[C@@H](CC(C)C)C(=O)N[C@@H](CC(C)C)C(=O)N[C@@H](CCCCN)C(=O)N[C@@H](CCCCN)C(=O)N[C@@H](C)C(=O)N[C@@H](CCC(=O)O)C(=O)N[C@@H](CCC(=O)O)C(=O)N[C@@H](CCC(N)=O)C(=O)N[C@@H](CCC(N)=O)C(=O)N[C@@H](CCCCN)C(=O)N[C@@H](CCCCN)C(=O)N[C@@H](CC(N)=O)C(=O)N[C@@H](CCC(=O)O)C(=O)N[C@@H](CCC(=O)O)C(=O)N[C@@H](CCC(=O)O)C(=O)N[C@@H](CC(C)C)C(=O)N[C@@H](CCCCN)C(=O)N[C@@H](CCCCN)C(=O)N[C@@H](CC(C)C)C(=O)N[C@@H](CCC(=O)O)C(=O)N[C@@H](CCCCNC(=O)CCC(=O)O[C@H]1CC[C@@]2(C)C(=CC[C@H]3[C@@H]4CC[C@H]([C@H](C)CCCC(C)C)[C@@]4(C)CC[C@@H]32)C1)C(N)=O)[C@@H](C)CC` [LP-104] (Ac-WEEWEKKIEELEKKIEELLKKAEEQQKKNEEELKKLEK(Succinyl(4-O-cholesteryl))-NH2), for which the IC50 in the test on HIV-1NL4-3 pseudovirus is 14.5 pM; in the test with HIV-1JRFL pseudovirus it was 60.2 pM.

In the case of `CC[C@H](C)[C@H](NC(=O)[C@H](CCC(=O)O)NC(C)=O)C(=O)N[C@@H](CCC(=O)O)C(=O)N[C@@H](CCC(=O)O)C(=O)N[C@@H](CC(C)C)C(=O)N[C@@H](CCC(=O)O)C(=O)N[C@@H](CCCCN)C(=O)N[C@@H](CCCCN)C(=O)N[C@H](C(=O)N[C@@H](CCC(=O)O)C(=O)N[C@@H](CCC(=O)O)C(=O)N[C@@H](CC(C)C)C(=O)N[C@@H](CC(C)C)C(=O)N[C@@H](CCCCN)C(=O)N[C@@H](CCCCN)C(=O)N[C@@H](C)C(=O)N[C@@H](CCC(=O)O)C(=O)N[C@@H](CCC(=O)O)C(=O)N[C@@H](CCC(N)=O)C(=O)N[C@@H](CCC(N)=O)C(=O)N[C@@H](CCCCN)C(=O)N[C@@H](CCCCN)C(=O)N[C@@H](CC(N)=O)C(=O)N[C@@H](CCC(=O)O)C(=O)N[C@@H](CCC(=O)O)C(=O)N[C@@H](CCC(=O)O)C(=O)N[C@@H](CC(C)C)C(=O)N[C@@H](CCCCN)C(=O)N[C@@H](CCCCN)C(=O)N[C@@H](CC(C)C)C(=O)N[C@@H](CCC(=O)O)C(=O)N[C@@H](CCCCNC(=O)CCC(=O)O[C@H]1CC[C@@]2(C)C(=CC[C@H]3[C@@H]4CC[C@H]([C@H](C)CCCC(C)C)[C@@]4(C)CC[C@@H]32)C1)C(N)=O)[C@@H](C)CC` [LP-101] (Ac-EIEELEKKIEELLKKAEEQQKKNEEELKKLEK(Succinyl(4-O-cholesteryl))-NH2), the IC50 in the test with HIV-1JRFL pseudovirus was 2.26 pM.
